Legend:
GABAA receptor = assay: CNP-recorded membrane potential of HT-22 cells during pharmacological stimulation (GABA, bicuculline); assay type: cell-based, mouse; settings: for hyperpolarization from the RMP: 12 mM GABA in bath; for time for cell to return to its RMP: constant HBSS perfusion
Protocol: Recording Cellular Responses to Pharmacological Stimuli. In addition to monitoring predictable cell membrane potential changes caused by ionic enrichment, CNPs were utilized to electrically record cell responses to pharmacological stimuli. Y-aminobutyric acid (GABA), a principal inhibitory neurotransmitter in the mammalian central nervous system which acts as an agonist for the membrane-bound GABAA receptor, was administered. When GABA binds to the GABAA receptor, the cell hyperpolarizes as a result of Cl− ion influx due to the opening of the ligand-gated Cl− ion channel. However, the hyperpolarization can be blocked by perfusing cells with bicuculline (BIC), a competitive antagonist for the GABAA receptor which binds to the GABAA receptor and prevents it from opening even in the presence of GABA.
FIG. 10A illustrates how an HT-22 cell responded when GABA was added to the cell bath (12 mM GABA in bath, arrow).
Cell Culture and Preparation. […] Cells were grown in Dulbecco's Modified Eagle Medium (DMEM, high glucose) supplemented with 10% fetal bovine serum (FBS) and 1% antibiotics. The cells were plated on 12 mm cover slips 48 hrs prior to the electrophysiology measurements. The cells on the cover slips were incubated in HBSS (with calcium and magnesium) at room temperature for 10 min prior to measurements. The cover slips were subsequently placed in an open diamond perfision bath (Warner Instruments Corp., RC-22C) positioned on an upright microscope (Nikon eclipse E600FN, 40× water-immersion lens, Burleigh Gibraltar fixed-stage platform) located atop a vibration-isolation table. Cells were routinely perfised with HBSS at a flow rate of 1.0 mllmin.
Electrophysiology. Membrane potential measurements were recorded with an Axon AxoClamp-2A amplifier equipped with a headstage for high resistance electrodes (Axon HS2-XO.OlMU) and Digidata 1322A digitizer (Axon Instruments/Molecular Devices, Sunnyvale, Calif.). Experimental protocols were controlled and data acquired by a personal computer using the Clampex 8.2 software (Axon Instruments). CNPs were inserted into a standard electrode holder until the metal wire of the holder came in contact with the inner carbon film of the CNP. A slight positive pressure was applied through the holder's perfixion port to keep external solution from filling the hollow CNP by capillarity. A micromanipulator (Narishige MHW-3) was used to manipulate and position the CNP electrodes during the electrophysiology measurements. […] Recorded electrical measurements were not adjusted to compensate for differences in extracellular and intracellular junction potentials.

HT-22 cells = assay: CNP-recorded membrane potential of HT-22 cells during ionic (K+) enrichment; assay type: cell-based, mouse; settings: for depolarization: KCl added to bath
Text: Because the cell membrane is highly permeable to potassium ions (K^+), an increase or decrease in extracellular K+ concentration will, respectively, cause a resting cell to depolarize (membrane potential becoming more positive) or hyperpolarize (membrane potential becoming more negative). Utilizing CNPs, variations in membrane potential were monitored over tens of minutes. FIG. 8A is a recording of membrane potential from an HT-22 cell during perfusion intervals with normal HBSS and K+-enriched HBSS (additional 5 mM K^+). […] After approximately 2 min at higher extracellular K^+, the cell was perfused with normal HBSS and the cell slowly returned to its RMP.
Next, a CNP was used to measure changes in membrane potential during repetitive extracellular administration of KCl [FIG. 8B]. After penetrating the cell, as indicated by the arrow in FIG. 8B, the CNP measured a stable RMP under normal HBSS perfusion (Emp=−68 mV). […] Under constant perfusion in normal HBSS, the membrane potential returned to its original value after […]. The results were reproducible with high fidelity.
FIG. 8C is a representation of potential variations as a function of time during the administration of HBSS and the varied K+-enrichment of HBSS (additional 5 and 15 mM K^+). […] As normal HBSS perfusion brought the bath back to its initial K+ concentration, the cell returned to its RMP in ˜90 seconds.
Lastly, CNPs were used to electrically record a cell response to sequential pharmacological stimulation and ionic enrichment. FIG. 10B represents the opposing membrane responses to such stimuli over time. […] Once the GABA was washed away under constant HBSS perfision, the cell returned to its RMP in 60 sec. […] As excess KCl was washed away under constant HBSS perfusion, the cell returned again to its RMP after 60 sec.
Cell Culture and Preparation. The mouse hippocampal cell line HT-22 was kindly provided by Dr. David Schubert (The Salk Institute, San Diego, Calif.). Cells were grown in Dulbecco's Modified Eagle Medium (DMEM, high glucose) supplemented with 10% fetal bovine serum (FBS) and 1% antibiotics. The cells were plated on 12 mm cover slips 48 hrs prior to the electrophysiology measurements. The cells on the cover slips were incubated in HBSS (with calcium and magnesium) at room temperature for 10 min prior to measurements. The cover slips were subsequently placed in an open diamond perfision bath (Warner Instruments Corp., RC-22C) positioned on an upright microscope (Nikon eclipse E600FN, 40× water-immersion lens, Burleigh Gibraltar fixed-stage platform) located atop a vibration-isolation table. Cells were routinely perfised with HBSS at a flow rate of 1.0 mllmin.
Electrophysiology. Membrane potential measurements were recorded with an Axon AxoClamp-2A amplifier equipped with a headstage for high resistance electrodes (Axon HS2-XO.OlMU) and Digidata 1322A digitizer (Axon Instruments/Molecular Devices, Sunnyvale, Calif.). Experimental protocols were controlled and data acquired by a personal computer using the Clampex 8.2 software (Axon Instruments). CNPs were inserted into a standard electrode holder until the metal wire of the holder came in contact with the inner carbon film of the CNP. A slight positive pressure was applied through the holder's perfixion port to keep external solution from filling the hollow CNP by capillarity. A micromanipulator (Narishige MHW-3) was used to manipulate and position the CNP electrodes during the electrophysiology measurements. All the electrical measurements were carried out versus an AgIAgCl reference electrode submerged in HBSS in discontinuous current clamp @CC) mode, at zero current, with no capacitance compensation. The CNP potential was nulled (+I-2 mV) with the amplifier offset potential during immersion in HBSS before all electrical measurements. Recorded electrical measurements were not adjusted to compensate for differences in extracellular and intracellular junction potentials.

## NCCCC(=O)O [GABA, Y-aminobutyric acid]
GABAA receptor; RMP -57 mV, FIG. 10B
  hyperpolarization from the RMP: 12 mV
GABAA receptor; normal HBSS perfusion, RMP -53 mV, FIG. 10A
  hyperpolarization from the RMP: 10 mV
GABAA receptor; after 12 mM GABA washed away, FIG. 10B
  time for cell to return to its RMP: 60 s
GABAA receptor; after 12 mM GABA, FIG. 10A
  time for cell to return to its RMP: 30 s

## [Cl-].[K+] [KCl, Potassium chloride]
HT-22 cells; additional 5 mM K+, RMP -57 mV, FIG. 8C
  depolarization: 10 mV
HT-22 cells; additional 15 mM K+, RMP -57 mV, FIG. 8C
  depolarization: 30 mV
HT-22 cells; additional 15 mM K+, after GABA washout, RMP -57 mV, FIG. 10B
  depolarization: 25 mV
HT-22 cells; additional 25 mM K+, RMP -68 mV, FIG. 8B
  depolarization: 40 mV
HT-22 cells; after additional 5 mM K+, normal HBSS perfusion, FIG. 8C
  time for cell to return to its RMP: ~90 s
HT-22 cells; after additional 15 mM K+, FIG. 8C
  time for cell to return to its RMP: ~90 s
HT-22 cells; after additional 15 mM K+, constant HBSS perfusion, FIG. 10B
  time for cell to return to its RMP: 60 s

Source: US20110125050A1, “Multiple-Electrode and Metal-Coated Probes” (THE TRUSTEES OF THE UNIVERSITY OF PENNSYLVANIA, priority 2004, published 2011)
